Common to all, as to experiment: Large panel kinase profiling
What all share (type): biochemical
Conditions in all cases: 1 μM test article, 1 mM ATP

For test [1], the target named is T1, MAP3K8 (Homo sapiens, UniProt P41279).
T1 construct: AssayQuant Technologies, Inc. (service provider)
The method in brief:
(§1)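 CSox-Sensor fluorescence readout; test article 1 μM, ATP 1 mM, 30° C.; kinetic reads at 1-min intervals, Ex 360/Em 485 nm.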

The target in test [2] is RET (Homo sapiens, UniProt P07949). The method in brief:
as §1

For test [3], the target named is ERBB2/HER2 (Homo sapiens, UniProt P04626). The method in brief:
as §1

Test [4] has as its target T2, GRK6 (Homo sapiens, UniProt P43250).
T2 construct: AssayQuant Technologies, Inc. (service provider)
The method in brief: as §1

The target of test [5] is T3, MERTK/MER (Homo sapiens, UniProt Q12866).
T3 construct: AssayQuant Technologies, Inc. (assay service)
T3 sequence (Q12866 21-999): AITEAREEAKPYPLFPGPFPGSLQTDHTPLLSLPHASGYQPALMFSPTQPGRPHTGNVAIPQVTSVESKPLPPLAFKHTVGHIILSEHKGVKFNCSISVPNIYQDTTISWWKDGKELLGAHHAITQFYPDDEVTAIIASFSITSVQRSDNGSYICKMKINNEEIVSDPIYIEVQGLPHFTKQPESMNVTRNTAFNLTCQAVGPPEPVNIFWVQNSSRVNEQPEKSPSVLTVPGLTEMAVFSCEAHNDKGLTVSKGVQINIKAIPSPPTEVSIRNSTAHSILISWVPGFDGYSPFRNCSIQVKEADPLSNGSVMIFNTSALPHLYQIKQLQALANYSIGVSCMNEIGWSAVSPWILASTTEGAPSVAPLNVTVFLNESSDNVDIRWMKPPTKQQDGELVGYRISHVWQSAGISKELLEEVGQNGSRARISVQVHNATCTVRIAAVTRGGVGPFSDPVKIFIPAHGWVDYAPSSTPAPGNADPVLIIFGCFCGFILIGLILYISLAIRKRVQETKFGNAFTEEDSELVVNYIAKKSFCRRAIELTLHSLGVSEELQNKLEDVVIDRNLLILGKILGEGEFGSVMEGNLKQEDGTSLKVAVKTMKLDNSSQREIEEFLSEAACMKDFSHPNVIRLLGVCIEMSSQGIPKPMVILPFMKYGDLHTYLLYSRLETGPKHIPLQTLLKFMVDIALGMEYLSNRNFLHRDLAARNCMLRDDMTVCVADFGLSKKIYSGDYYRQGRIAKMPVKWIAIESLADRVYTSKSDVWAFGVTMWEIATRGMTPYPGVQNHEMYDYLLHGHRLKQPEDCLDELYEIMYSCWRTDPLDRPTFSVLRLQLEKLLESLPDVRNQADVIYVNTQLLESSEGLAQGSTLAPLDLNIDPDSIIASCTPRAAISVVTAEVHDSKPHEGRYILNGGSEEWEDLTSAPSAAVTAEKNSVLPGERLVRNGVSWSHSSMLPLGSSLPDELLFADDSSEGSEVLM
The method in brief: as §1

Test [6] has as its target T4, DDR2 (Homo sapiens, UniProt Q16832).
T4 construct: AssayQuant Technologies, Inc. (service laboratory)
T4 sequence (Q16832 22-855): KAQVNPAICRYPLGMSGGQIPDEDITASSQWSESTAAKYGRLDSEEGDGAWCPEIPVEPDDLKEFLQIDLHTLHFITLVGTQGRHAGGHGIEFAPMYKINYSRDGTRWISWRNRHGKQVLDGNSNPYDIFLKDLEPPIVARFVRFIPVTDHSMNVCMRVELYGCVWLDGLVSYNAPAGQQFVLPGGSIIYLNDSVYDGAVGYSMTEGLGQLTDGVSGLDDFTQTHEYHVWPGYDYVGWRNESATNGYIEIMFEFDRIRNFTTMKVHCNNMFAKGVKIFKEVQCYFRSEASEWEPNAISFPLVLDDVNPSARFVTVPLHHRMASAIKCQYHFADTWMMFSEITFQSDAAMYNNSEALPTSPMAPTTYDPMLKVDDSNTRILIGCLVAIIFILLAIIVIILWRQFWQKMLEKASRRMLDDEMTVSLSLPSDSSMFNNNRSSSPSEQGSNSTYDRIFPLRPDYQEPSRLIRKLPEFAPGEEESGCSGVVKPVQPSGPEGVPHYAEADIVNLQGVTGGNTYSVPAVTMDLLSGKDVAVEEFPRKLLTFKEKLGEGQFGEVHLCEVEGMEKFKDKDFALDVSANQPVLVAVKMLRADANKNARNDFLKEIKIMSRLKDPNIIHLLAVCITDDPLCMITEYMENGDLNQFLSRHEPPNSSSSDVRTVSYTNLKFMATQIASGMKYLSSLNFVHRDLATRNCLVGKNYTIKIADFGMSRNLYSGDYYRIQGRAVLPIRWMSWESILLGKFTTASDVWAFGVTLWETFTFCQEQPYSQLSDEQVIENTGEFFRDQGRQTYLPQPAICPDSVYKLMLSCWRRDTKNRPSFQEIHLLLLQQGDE
The procedure, abridged: as §1

What is called inhibition is the relative decrease from the control value, in per cent.

The structures appear in SMILES notation.

Sequence of RET (P07949 29-1114, species assumed): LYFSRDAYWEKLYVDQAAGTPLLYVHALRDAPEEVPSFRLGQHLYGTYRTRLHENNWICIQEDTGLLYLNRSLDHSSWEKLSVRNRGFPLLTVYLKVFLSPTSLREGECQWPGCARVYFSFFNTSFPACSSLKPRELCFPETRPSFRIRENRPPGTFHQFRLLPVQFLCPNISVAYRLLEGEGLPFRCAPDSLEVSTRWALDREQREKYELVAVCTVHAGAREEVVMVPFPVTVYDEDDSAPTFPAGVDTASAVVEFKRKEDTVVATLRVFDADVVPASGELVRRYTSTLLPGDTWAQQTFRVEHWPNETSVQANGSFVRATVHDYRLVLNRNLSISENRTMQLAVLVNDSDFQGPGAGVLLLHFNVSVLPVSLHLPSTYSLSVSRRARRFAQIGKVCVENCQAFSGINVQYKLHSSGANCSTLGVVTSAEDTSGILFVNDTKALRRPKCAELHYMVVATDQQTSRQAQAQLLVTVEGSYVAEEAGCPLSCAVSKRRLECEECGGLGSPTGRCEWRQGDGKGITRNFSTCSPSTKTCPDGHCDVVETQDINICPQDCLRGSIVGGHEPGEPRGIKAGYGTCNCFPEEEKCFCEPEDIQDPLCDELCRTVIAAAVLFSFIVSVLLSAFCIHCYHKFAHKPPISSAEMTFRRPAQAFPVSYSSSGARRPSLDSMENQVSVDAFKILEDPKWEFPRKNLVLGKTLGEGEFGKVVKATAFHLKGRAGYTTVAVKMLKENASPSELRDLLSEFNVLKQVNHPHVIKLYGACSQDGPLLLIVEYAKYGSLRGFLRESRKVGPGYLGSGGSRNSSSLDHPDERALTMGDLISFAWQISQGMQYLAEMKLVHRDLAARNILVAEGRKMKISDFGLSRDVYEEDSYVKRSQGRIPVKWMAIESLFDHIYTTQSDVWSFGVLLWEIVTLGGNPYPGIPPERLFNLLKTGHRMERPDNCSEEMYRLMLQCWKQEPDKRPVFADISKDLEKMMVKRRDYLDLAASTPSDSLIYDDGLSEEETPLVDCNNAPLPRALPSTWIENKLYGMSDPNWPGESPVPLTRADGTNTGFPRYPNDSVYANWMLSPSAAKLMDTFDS
Sequence of ERBB2/HER2 (P04626 23-1255): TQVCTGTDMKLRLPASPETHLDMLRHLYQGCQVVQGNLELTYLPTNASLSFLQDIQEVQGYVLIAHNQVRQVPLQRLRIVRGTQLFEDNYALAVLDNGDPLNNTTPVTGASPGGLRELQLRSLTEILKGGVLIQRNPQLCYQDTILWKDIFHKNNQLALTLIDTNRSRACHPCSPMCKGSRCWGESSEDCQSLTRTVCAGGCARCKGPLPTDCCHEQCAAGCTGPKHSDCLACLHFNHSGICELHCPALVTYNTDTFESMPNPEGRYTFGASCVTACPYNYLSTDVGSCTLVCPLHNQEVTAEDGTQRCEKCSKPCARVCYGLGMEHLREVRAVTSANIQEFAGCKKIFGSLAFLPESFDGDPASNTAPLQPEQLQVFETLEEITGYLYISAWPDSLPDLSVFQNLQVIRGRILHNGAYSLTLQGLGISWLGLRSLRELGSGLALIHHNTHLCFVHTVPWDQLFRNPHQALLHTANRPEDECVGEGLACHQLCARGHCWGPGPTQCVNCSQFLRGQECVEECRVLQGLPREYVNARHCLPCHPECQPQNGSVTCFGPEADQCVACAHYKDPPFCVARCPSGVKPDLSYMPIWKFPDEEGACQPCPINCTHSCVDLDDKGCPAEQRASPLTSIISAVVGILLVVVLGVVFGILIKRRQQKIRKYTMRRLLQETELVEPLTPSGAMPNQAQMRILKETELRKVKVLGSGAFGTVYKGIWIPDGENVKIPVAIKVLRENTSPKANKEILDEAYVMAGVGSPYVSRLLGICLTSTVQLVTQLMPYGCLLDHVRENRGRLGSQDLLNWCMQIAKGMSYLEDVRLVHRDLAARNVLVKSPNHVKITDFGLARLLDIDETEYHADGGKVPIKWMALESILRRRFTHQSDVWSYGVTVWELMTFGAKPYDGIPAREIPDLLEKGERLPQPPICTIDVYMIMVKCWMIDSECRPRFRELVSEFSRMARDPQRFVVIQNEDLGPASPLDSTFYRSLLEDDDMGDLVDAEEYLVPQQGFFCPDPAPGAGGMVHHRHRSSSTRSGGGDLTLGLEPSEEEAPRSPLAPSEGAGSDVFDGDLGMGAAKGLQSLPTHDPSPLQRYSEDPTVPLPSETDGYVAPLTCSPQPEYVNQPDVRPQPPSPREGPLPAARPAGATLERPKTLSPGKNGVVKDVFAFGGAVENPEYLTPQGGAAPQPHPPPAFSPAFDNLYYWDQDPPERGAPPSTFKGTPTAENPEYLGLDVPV
T2 sequence (P43250 whole entry, species assumed): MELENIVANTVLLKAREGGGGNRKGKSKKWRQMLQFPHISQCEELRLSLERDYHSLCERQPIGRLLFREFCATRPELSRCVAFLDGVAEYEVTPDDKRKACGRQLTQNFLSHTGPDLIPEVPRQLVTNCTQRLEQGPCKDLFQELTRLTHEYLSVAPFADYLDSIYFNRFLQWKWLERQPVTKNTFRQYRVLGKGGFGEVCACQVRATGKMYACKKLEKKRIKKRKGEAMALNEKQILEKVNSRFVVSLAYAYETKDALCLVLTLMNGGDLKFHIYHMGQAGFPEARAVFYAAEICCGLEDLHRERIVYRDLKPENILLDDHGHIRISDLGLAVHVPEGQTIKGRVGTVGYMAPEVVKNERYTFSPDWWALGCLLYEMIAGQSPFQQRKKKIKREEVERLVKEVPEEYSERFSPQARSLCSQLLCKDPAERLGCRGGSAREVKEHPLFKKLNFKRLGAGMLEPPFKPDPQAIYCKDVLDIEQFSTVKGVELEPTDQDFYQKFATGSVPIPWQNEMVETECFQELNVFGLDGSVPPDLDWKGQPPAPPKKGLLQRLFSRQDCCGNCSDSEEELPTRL
T1 sequence (P41279 whole entry, species assumed): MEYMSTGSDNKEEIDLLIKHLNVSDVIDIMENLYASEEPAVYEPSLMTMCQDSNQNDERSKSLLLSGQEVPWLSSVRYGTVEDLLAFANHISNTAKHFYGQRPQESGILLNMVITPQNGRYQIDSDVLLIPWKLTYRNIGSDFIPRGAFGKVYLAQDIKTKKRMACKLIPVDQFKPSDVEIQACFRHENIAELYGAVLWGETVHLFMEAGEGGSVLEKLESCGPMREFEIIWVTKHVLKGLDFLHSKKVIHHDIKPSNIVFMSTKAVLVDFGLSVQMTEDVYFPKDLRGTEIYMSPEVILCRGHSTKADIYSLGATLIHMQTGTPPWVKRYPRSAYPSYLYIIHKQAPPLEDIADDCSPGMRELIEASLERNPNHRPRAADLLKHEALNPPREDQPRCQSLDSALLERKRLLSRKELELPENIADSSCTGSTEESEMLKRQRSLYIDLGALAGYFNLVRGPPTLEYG

Take `C=CC(=O)N1CCCC(c2c(F)cc(C(N)=O)c3[nH]c4c(c23)CCCCC4)C1` (single isomer, unassigned) [Compound 5-6]: the inhibition at 1 µM in test [1] is 7.4%; in test [2], -24%; in test [3], -2.2%; in test [4], 8%; in test [5], -0.8%; in test [6] it was -6.5%.

For the compound `C=CC(=O)N1CCC[C@@H](c2c(F)cc(C(N)=O)c3[nH]c4c(c23)CC2(CC4)CC2)C1` [Compound 6-2, (S)-5-(1-acryloylpiperidin-3-yl)-6-fluoro-1,2,4,9-tetrahydrospiro[carbazole-3,1′-cyclopropane]-8-carboxamide], the inhibition at 1 µM in test [1] is 10.1%; in test [2], 23%; in test [3], 11.9%; in test [4], -3.1%; in test [5], 12.4%; in test [6] it was -15.9%.

`C=CC(=O)N1CCC[C@@H](c2c(F)cc(C(N)=O)c3[nH]c4c(c23)CCC4)C1` [Compound 10-2, (S)-8-(1-acryloylpiperidin-3-yl)-7-fluoro-1,2,3,4-tetrahydrocyclo-penta[b]indole-5-carboxamide]: the inhibition at 1 µM is 4.5% in test [1]; 6% in test [2]; 14.5% in test [3]; -1.9% in test [4]; 14.8% in test [5]; -26.7% in test [6].

Values taken from US20220009920A1 (GB005, Inc., priority 2020, published 2022).
